# Assays:
# Assay in all cases: FAST flow cytometry AST with PB-sQF, bacteria recovered from 10% human blood
# Type in all cases: cell-based
# E. coli strain Mu14S = system: E. coli strain Mu14S
# Method: (§1) Varied counts of bacteria were mixed with human blood and diluted 1:9 (v/v) with bacterial growth medium to desired bacterial concentrations (<10 CFU/mL final solution) and plated to independently confirm CFU/mL blood. Saponin was immediately added and the samples shaken for 15 minutes to achieve selective blood cell lysis. After hemolysis, bacteria were spun down and washed with PBS. The pellets were resuspended in bacterial growth medium and incubated at 37° C. for 2 hours, followed by another 3-hour incubation with antibiotics at various fractions of the minimum inhibition concentration (MIC, as independently determined by microdilution from the pure starting culture, Table 1) for sensitive strains or at the CLSI MIC resistant breakpoints^(12) for the highly resistant strains. Changes in scattered light signals largely resulting from bacterial growth inhibition were monitored by flow cytometry, and the difference in the 2-D scatter histograms with and without antibiotic treatment was quantified with PB-sQF statistics.^(1) Using PB-sQF, distance was calculated for each antibiotic concentration relative to its own no-antibiotic control and expressed as “fold distance” relative to the 99% confidence limit distance between the no-antibiotic control and the sensitive breakpoint. This allowed comparison of fold distances among all samples as each is individually paired to its own control, as is each replicate.
# (§2) To simulate a blood specimen from a patient with bacteremia, the isolates were grown, diluted to the desired CFU/mL in blood (ZenBio, Research Triangle Park, NC) and saponin was added to achieve the final diluted sample. Initial bacterial cultures were prepared using Luria-Bertani (LB) broth for (E. coli) or cation-adjusted Mueller-Hinton broth (CAMHB). The fresh bacterial cultures started from ˜0.05 optical density (OD) by inoculating a 6-mL fresh growth medium with overnight culture were grown in an incubator shaker (MaxQ 4000, Thermal Fisher Scientific, Waltham, MA) at 37° C. and 225 rpm. After the culture reached mid-log phase, bacteria were collected and diluted into ˜10 CFU/mL through serial 10-fold dilutions. Bacterial densities were determined by plating onto LB plates. The final 10-fold dilution was performed by adding 500 μL of 100 CFU/mL into 4500 μL of 10% human blood in medium.
# (§3) A 2.5% (w/v) of saponin solution was prepared, sonicated (Branson 2510, Emerson, St. Louis, MO) for 20 minutes and spun down with a clinical centrifuge (Centrific Model 228, Fisher Scientific, Waltham, MA) for 4 minutes. The supernatant cleared of particulates was collected. 500 μL of 2.5% saponin was then added to the 5 mL of 10% human blood sample with ˜10 CFU/mL, described above and the mixtures were shaken at 300 rpm for 15 minutes at 37° C. After the saponin treatment, the bacteria were pelleted and washed with 2 mL of phosphate buffered saline (PBS) (Life Technologies, Carlsbad, CA) using a clinical centrifuge for 2 minutes. Bacterial growth medium (2.5 mL) was then added to the tube and incubated for 2 hours at 37° C. and 225 rpm.
# (§4) After the 2-hour incubation, 500-μL aliquots of the suspension were added to each of 4 wells in a 12-well microtiter plate that contained 500 μL of growth medium with or without antibiotic at 2-fold of specified concentrations. The plate was then incubated at 37° C. for 3 hours. Bacteria were collected by centrifugation (Centrifuge 5417R, Eppendorf) and resuspended in 200 μL of PBS for flow cytometry detection. To ensure each clinical isolate was tested at its MIC values of the tested antibiotics, the initial bacterial cultures at the 1000 CFU/mL dilution were also tested for each experiment (FIGS. 4A-4F, 5A-5F, 7A-7F, 8A-8F, and 9A-9F), confirming that the antibiotic concentrations indeed inhibited bacterial growth.
# (§5) Cytometric data were collected by BD LSRFortessa flow cytometer (Becton Dickinson, Franklin Lake, NY) equipped with a 100 mW, 488 nm laser for the scatter signal. […]
# E. coli strain Mu890 = system: E. coli strain Mu890
# Method: as §1, §2, §3, §4, §5
# [1] = system: K. pneumoniae strain Mu55; conditions: ~8 CFU/mL after 10-fold dilution
# Method: as §1, §2, §3, §4, §5
# [2] = system: K. pneumoniae strain Mu670; conditions: ~9 CFU/mL after 10-fold dilution
# Method: as §1, §2, §3, §4, §5
substance,measurement,setting,value
Gentamicin,FAST antibiotic-induced scatter signal change,E. coli strain Mu14S; Mu14S treated at the MIC,exhibits growth inhibition
same,PB-sQF fold distance average versus the paired-control,"E. coli strain Mu14S; Mu14S, 1×MIC, triplicate data",clear differences
same,PB-sQF fold distance-based FAST result,"E. coli strain Mu890; Mu890, beyond the 99% confidence level",effective
same,FAST antibiotic-induced scatter signal change,"E. coli strain Mu890; Mu890 treated at the MIC, 3-hr incubation, vs paired no-antibiotic control",effective growth inhibition
same,PB-sQF FAST result,[1],appropriate
same,PB-sQF FAST result,[2],appropriate
